Biological target: T1, Human TRPA1 expressing CHO cells (Homo sapiens, UniProt O75762)
T1 construct: expressed in transfected cells; host or cells: CHO cells (under G-418 selection)
Test: 45Calcium uptake assay: inhibition of AITC induced cellular uptake of radioactive calcium
Format: cell-based
Details: AITC 30 μM; for inhibition at 1 µM: 1.0 μM test compound, read-out: Percentage inhibition at 1.0 μM; for inhibition at 1 µM / inhibition at 10 µM / IC50: human TRPA1 CHO cells; for inhibition at 10 µM: 10.0 μM test compound, read-out: Percentage inhibition at 10.0 μM; for IC50: read-out: IC50 value (range)
Experimental: The illustrative examples of the present invention are screened for TRPA1 activity according to a modified procedure described in (a) Tóth, A. et al. Life Sciences (2003), 73, 487-498. ([…]. et al. Proc. Natl. Acad. Sci. U.S.A., (2007), 104, 13525-13530. The screening of the compounds can be carried out by other methods and procedures known to persons skilled in the art. Screening for TRPA1 Antagonist Using the ^45Calcium Uptake Assay The inhibition of TRPA1 receptor activation was measured as inhibition of allyl isothiocyanate (AITC) induced cellular uptake of radioactive calcium. […] Final concentration of DMSO in the reaction was 0.5% (v/v). […] Cells were seeded 24 h prior to the assay in 96 well plates so as to get 50,000 cells per well on the day of experiment. Cells were treated with test compounds for 10 min followed by addition of AITC at a final concentration of 30 μM and 5 μCi/ml ^45Ca^+2 for 3 min. […] Radioactivity in the lysate was measured in Packard Top count after addition of liquid scintillant. Concentration response curves were plotted as a % of maximal response obtained in the absence of test antagonist. IC50 value was calculated from concentration response curve by nonlinear regression analysis using GraphPad PRISM software.

T1 sequence (O75762 whole entry): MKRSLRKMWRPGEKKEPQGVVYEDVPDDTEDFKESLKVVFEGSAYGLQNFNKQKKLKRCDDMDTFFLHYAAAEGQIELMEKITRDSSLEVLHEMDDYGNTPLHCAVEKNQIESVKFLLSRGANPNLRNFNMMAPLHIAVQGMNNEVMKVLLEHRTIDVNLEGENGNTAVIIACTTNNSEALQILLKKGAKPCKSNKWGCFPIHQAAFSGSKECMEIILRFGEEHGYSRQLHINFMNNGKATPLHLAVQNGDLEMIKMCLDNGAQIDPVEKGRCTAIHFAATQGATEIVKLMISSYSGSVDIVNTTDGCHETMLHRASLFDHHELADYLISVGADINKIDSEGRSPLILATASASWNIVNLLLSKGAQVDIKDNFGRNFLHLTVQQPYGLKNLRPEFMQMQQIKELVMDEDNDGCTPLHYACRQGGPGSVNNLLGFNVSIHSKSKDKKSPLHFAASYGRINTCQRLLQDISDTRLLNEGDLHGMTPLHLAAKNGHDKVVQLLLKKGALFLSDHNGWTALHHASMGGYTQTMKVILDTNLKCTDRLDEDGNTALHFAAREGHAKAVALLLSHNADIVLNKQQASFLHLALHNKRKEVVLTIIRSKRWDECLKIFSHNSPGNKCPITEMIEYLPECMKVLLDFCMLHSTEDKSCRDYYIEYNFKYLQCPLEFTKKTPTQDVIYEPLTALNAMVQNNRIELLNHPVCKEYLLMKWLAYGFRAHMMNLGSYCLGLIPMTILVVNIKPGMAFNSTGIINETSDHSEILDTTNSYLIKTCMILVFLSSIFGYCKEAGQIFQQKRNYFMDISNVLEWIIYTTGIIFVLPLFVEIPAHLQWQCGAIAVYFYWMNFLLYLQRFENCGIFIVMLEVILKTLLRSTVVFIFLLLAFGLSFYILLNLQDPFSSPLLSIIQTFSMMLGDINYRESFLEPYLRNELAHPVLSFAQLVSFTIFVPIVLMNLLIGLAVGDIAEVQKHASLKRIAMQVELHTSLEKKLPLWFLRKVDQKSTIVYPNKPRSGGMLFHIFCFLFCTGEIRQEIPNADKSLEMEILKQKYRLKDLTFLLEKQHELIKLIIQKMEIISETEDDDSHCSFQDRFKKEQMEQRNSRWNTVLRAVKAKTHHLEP

Structure (SMILES)	inhibition at 1 µM [%]	inhibition at 10 µM [%]	IC50 [nM]	inhibition at 3 µM (CHO, 3 μM test compound (printed in the 10.0 μM column), read-out: Percentage inhibition (3 μM)) [%]
Cn1c(=O)c2c(CC(=O)Nc3nc(-c4ccc(F)c(C(F)(F)F)c4F)cs3)cccc2n(C)c1=O [Example 67, N1-{4-[2,4-Difluoro-3-trifluoromethylphenyl]-1,3-thiazol-2-yl}-2-(1,3-dimethyl-2,4-dioxo-1,2,3,4-tetrahydro-5-quinazolinyl)acetamide]	97.8	–	< 50	99.5
Cn1c(=O)c2c(CC(=O)Nc3nc(-c4cc(F)c(C(F)(F)F)c(F)c4)cs3)cccc2n(C)c1=O [Example 66, N1-{4-[3,5-Difluoro-4-trifluoromethylphenyl]-1,3-thiazol-2-yl}-2-(1,3-dimethyl-2,4-dioxo-1,2,3,4-tetrahydro-5-quinazolinyl)acetamide]	100	100	< 50	–
Cn1c(=O)c2c(CC(=O)Nc3nc(-c4cccc(Cl)c4F)cs3)cccc2n(C)c1=O [Example 50, N1-[4-(3-Chloro-2-fluorophenyl)-1,3-thiazol-2-yl]-2-(1,3-dimethyl-2,4-dioxo-1,2,3,4-tetrahydro-5-quinazolinyl)acetamide]	95.3	98.9	50.1 to 100	–
Cn1c(=O)c2c(CC(=O)Nc3nc(-c4c(F)ccc(F)c4F)cs3)cccc2n(C)c1=O [Example 62]	59	94.2	> 100	–
Cn1c(=O)c2c(CC(=O)Nc3nc(-c4ccc(C(F)(F)F)cc4)cs3)cccc2n(C)c1=O [Example 14, N1-[4-(4-Trifluromethylphenyl)-1,3-thiazol-2yl]-2-(1,3-dimethyl-2,4-dioxo-1,2,3,4-tetrahydro-5-quinazolinyl)acetamide]	97.9	99.1	< 50	–
Cn1c(=O)c2c(CC(=O)Nc3nc(-c4ccc(F)c(OC(F)(F)F)c4)cs3)cccc2n(C)c1=O [Example 42]	98.3	99	50.1 to 100	–
Cn1c(=O)c2c(CC(=O)Nc3nc4c(s3)CCc3cc(Cl)ccc3-4)cccc2n(C)c1=O [Example 78]	59.8	90.3	> 100	–
Cn1c(=O)c2c(CC(=O)Nc3ccn(-c4ccc(Cl)cc4F)n3)cccc2n(C)c1=O [Example 82, N1-[1-(4-Chloro-2-Fluorophenyl)-1H-3-pyrazolyl]-2-(1,3-dimethyl-2,4-dioxo-1,2,3,4-tetrahydro-5-quinazolinyl)acetamide]	76.7	90.7	> 100	–
Cn1c(=O)c2c(CC(=O)Nc3nc(-c4c(F)ccc(C(F)(F)F)c4F)cs3)cccc2n(C)c1=O [Example 68, N1-{4-[2,6-Difluoro-3-trifluoromethylphenyl]-1,3-thiazol-2-yl}-2-(1,3-dimethyl-2,4-dioxo-1,2,3,4-tetrahydro-5-quinazolinyl)acetamide]	84.6	98.6	> 100	–
Cn1c(=O)c2c(CC(=O)Nc3nc(-c4cccc(F)c4F)cs3)cccc2n(C)c1=O [Example 35, N1-[4-(2,3-Difluorophenyl)-1,3-thiazol-2-yl]-2-(1,3-dimethyl-2,4-dioxo-1,2,3,4-tetrahydro-5-quinazolinyl)acetamide]	76.8	95.8	50.1 to 100	–
Cn1c(=O)c2c(CC(=O)Nc3ccn(-c4cccc(C(F)(F)F)c4)n3)cccc2n(C)c1=O [Example 81, N1-[1-(3-Trifluoromethylphenyl)-1H-3-pyrazolyl]-2-(1,3-dimethyl-2,4-dioxo-1,2,3,4-tetrahydro-5-quinazolinyl)acetamide]	97.1	99.6	50.1 to 100	–
Cn1c(=O)c2c(CC(=O)Nc3nc(-c4c(Cl)ccc(F)c4Cl)cs3)cccc2n(C)c1=O [Example 64, N1-[4-(2,6Dichloro-3-fluorophenyl)-1,3-thiazol-2-yl]-2-(1,3-dimethyl-2,4-dioxo-1,2,3,4-tetrahydro-5-quinazolinyl)acetamide]	11.5	27	–	–
Cn1c(=O)c2c(CC(=O)Nc3cccc(-c4ccc(Cl)cc4)n3)cccc2n(C)c1=O [Example 4, N1-[6-(4-chlorophenyl)-2-pyridyl]-2-(1,3-dimethyl-2,4-dioxo-1,2,3,4-tetrahydro-5-quinazolinyl)acetamide]	60.7	95.2	–	–
CC(C)CCOc1ccc(-c2csc(NC(=O)Cc3cccc4c3c(=O)n(C)c(=O)n4C)n2)cc1 [Example 19, N1-[4-(4-(3-Methylbutoxy)phenyl)-1,3-thiazol-2-yl]-2-(1,3-dimethyl-2,4-dioxo-1,2,3,4-tetrahydro-5-quinazolinyl)acetamide]	93	97.9	50.1 to 100	–

Results, then the compound that gave them:

inhibition at 1 µM [%]	inhibition at 10 µM [%]	IC50 [nM]	inhibition at 3 µM (CHO, 3 μM test compound (printed in the 10.0 μM column), read-out: Percentage inhibition (3 μM)) [%]	Structure (SMILES)
90.1	97.9	< 50	–	Cn1c(=O)c2c(CC(=O)Nc3nc(-c4ccc(F)cc4F)cs3)cccc2n(C)c1=O [Example 31, N1-[4-(2,4-Difluorophenyl)-1,3-thiazol-2-yl]-2-(1,3-dimethyl-2,4-dioxo-1,2,3,4-tetrahydro-5-quinazolinyl)acetamide]
100	99.9	< 50	–	Cn1c(=O)c2c(CC(=O)Nc3nc(-c4cc(F)c(OCC(F)(F)F)c(F)c4)cs3)cccc2n(C)c1=O [Example 70, N1-{4-[3,5-Difluoro-4-(2,2,2-trifluoroethoxy)phenyl]-1,3-thiazol-2-yl}-2-(1,3-dimethyl-2,4-dioxo-1,2,3,4-tetrahydro-5-quinazolinyl)acetamide]
95.7	99.7	< 50	–	CC(C)Cc1ccc(-c2csc(NC(=O)Cc3cccc4c3c(=O)n(C)c(=O)n4C)n2)cc1 [Example 21]
96.2	96.9	50.1 to 100	–	CCc1ccc(-c2csc(NC(=O)Cc3cccc4c3c(=O)n(C)c(=O)n4C)n2)cc1 [Example 23]
98.5	98.7	< 50	–	Cn1c(=O)c2c(CC(=O)Nc3nc(-c4ccc(F)c(C(F)(F)F)c4)cs3)cccc2n(C)c1=O [Example 38, N1-[4-(4-Fluoro-3-trifluoromethylphenyl)-1,3-thiazol-2-yl]-2-(1,3-dimethyl-2,4-dioxo-1,2,3,4-tetrahydro-5-quinazolinyl)acetamide]
30	75.9	–	–	COc1ccc(-c2csc(NC(=O)Cc3cccc4c3c(=O)n(C)c(=O)n4C)n2)cc1 [Example 17, N1-[4-(4-Methoxyphenyl)-1,3-thiazol-2-yl]-2-(1,3-dimethyl-2,4-dioxo-1,2,3,4-tetrahydro-5-quinazolinyl)acetamide]
95.6	99.7	< 50	–	Cn1c(=O)c2c(CC(=O)Nc3nc(-c4cccc(OC(F)(F)F)c4)cs3)cccc2n(C)c1=O [Example 16, N1-[4-(3-Trifluoromethoxyphenyl)-1,3-thiazol-2-yl]-2-(1,3-dimethyl-2,4-dioxo-1,2,3,4-tetrahydro-5-quinazolinyl)acetamide]
97.2	99.7	50.1 to 100	–	Cn1c(=O)c2c(CC(=O)Nc3ccn(-c4ccc(Cl)cc4)n3)cccc2n(C)c1=O [Example 80, N1-[1-(4-Chlorophenyl)-1H,3-pyrazolyl]-2-(1,3-dimethyl-2,4-dioxo-1,2,3,4-tetrahydro-5-quinazolinyl)acetamide]
7.98	31.6	–	–	Cc1ccc(Oc2ccc(NC(=O)Cc3cccc4c3c(=O)n(C)c(=O)n4C)cc2)cc1 [Example 3, N1-[4-(4-Methylphenoxy)phenyl]-2-(1,3-dimethyl-2,4-dioxo-1,2,3,4-tetrahydro-5-quinazolinyl)acetamide]
82.1	95.5	> 100	–	Cn1c(=O)c2c(CC(=O)Nc3nc(-c4ccc(Cl)cc4Cl)cs3)cccc2n(C)c1=O [Example 45, N1-[4-(2,4-Dichlorophenyl)-1,3-thiazol-2yl]-2-(1,3-dimethyl-2,4-dioxo-1,2,3,4-tetrahydro-5-quinazolinyl)acetamide]
71.3	88.2	–	–	Cn1c(=O)c2c(CC(=O)Nc3cccc(-c4ccc(C(F)(F)F)cc4)n3)cccc2n(C)c1=O [Example 6, N1-[6-(4-Trifluoromethylphenyl)-2-pyridyl]-2-(1,3-dimethyl-2,4-dioxo-1,2,3,4-tetrahydro-5-quinazolinyl)acetamide]
25	60.4	–	–	Cn1c(=O)n(CC2CC2)c(=O)c2c(CC(=O)Nc3nc(-c4ccc(C(F)(F)F)c(F)c4)cs3)cccc21 [Example 61, N1-[4-(3-Fluoro-4-trifluoromethylphenyl)-1,3-thiazol-2-yl]-2-(1-methyl-3-cyclopropyl-methyl-2,4-dioxo-1,2,3,4-tetrahydro-5-quinazolinyl)acetamide]

— patent US7951814B2, “Quinazolinedione derivatives as TRPA1 modulators” (Glenmark Pharmaceuticals, S.A., priority 2008, dated 2011)
